These results are taken from patent publication US12172964B2, “Tricyclic octacationic cyclophane and its use in complexation with perlene diimide dyes” (Northwestern University, priority 2020, dated 2024).

SMILES strings stand for the structures. Where “and” joins values, the source holds several entries; their conditions need not be identical. Equal values may be shown once. Marks after values point to notes of the source that are not given here.

The nature of series [1]: Isothermal titration calorimetry (ITC). Format: binding. The conditions noted are these: for ΔG: directly determined by ITC. As for the experimental part: In all ITC experiments, ExBox.4Cl and XCage.8CF3CO2 were used in titrations. Here we use ExBox^4+ and XCage^8+ for short. All of the solutions were prepared in spectroscopic grade solvents and equilibrated for 24 h at room temperature before use. All of the titrations were independently duplicated—shown below is one set of titration isotherms—and all isotherm fittings were used to calculate the average Ka and ΔH with relevant standard errors.
Isothermal titration was performed by TA Nano Isothermal Titration Calorimeter at 25° C. A hastelloy cell was used with an active cell volume 190 μL. The stirring speed was set at 150 rpm. Receptor and substrate solutions were prepared in Milli-Q water or MeCN and allowed to equilibrate overnight if necessary. […] After subtracting the heat of dilution, the resulting data were analyzed with NanoAnalyze software using a 1:1 binding model and plotted by Origin Lab 8.6 software.
On the technique in general: Isothermal titration calorimetry measures the heat released or taken up as one component is titrated into another.

Series [2] is described as follows: Binding thermodynamics of ExBox.4Cl towards PDI2 in water (fluorescence titration / ITC). As for the experimental part:
Direct fluorescence titration experiments: […] All of the solutions were prepared in spectroscopic grade solvents and equilibrated for 24 h at room temperature before use. All of the titrations were independently duplicated—shown below is one set of titration isotherms—and all isotherm fittings were used to calculate the average Ka and ΔH with relevant standard errors. Isothermal titration was performed by TA Nano Isothermal Titration Calorimeter at 25° C. A hastelloy cell was used with an active cell volume 190 μL. The stirring speed was set at 150 rpm. Receptor and substrate solutions were prepared in Milli-Q water or MeCN and allowed to equilibrate overnight if necessary.

Series [3] is described as follows: Binding constants by direct and displacement fluorescence titration. To be noted: for ΔG / Ka Fluorescence: 25° C.; for ΔG: estimated from fluorescence titrations. As for the experimental part:
(§1) In all experiments shown below, ExBox.4Cl and XCage.8CF3CO2 were used in titration studies. Here we use ExBox^4+ and XCage^8+ for short. All of the solutions were prepared in spectroscopic grade solvents and equilibrated for 24 h at room temperature before use. All of the studies were independently duplicated and the corresponding isotherms were fitted to calculate the average Ka or kon values with the relevant standard errors.
Direct fluorescence titration experiments: Since the association between PDI2 and ExBox^4+ in H2O produces turn-on fluorescence, we tracked the increase of fluorescence (ex: 545 nm, em: 555 nm) of PDI2 by varying equivalents of ExBox^4+. Caffeine is not fluorescent in H2O and its association with XCage^8+ quenches the fluorescence of XCage^8+. Thus, the fluorescence quenching of XCage^8+ was tracked by the addition of Caffeine. In MeCN, the fluorescence of perylene is quenched by XCage^8+ and thus the titration was performed by tracking the fluorescence quenching of Perylene. A plot of fluorescent intensity versus receptor concentration [R]0 or substrate concentration [S]0 was fitted with a nonlinear least-squares fitting equation for 1:1 binding model to calculate the binding constant Ka using Origin Lab 8.6 software.^S14, S15
Displacement fluorescence titration experiments in H2O: A large access of the competitor caffeine (10 mM) was pre-mixed with XCage^8+ (10 μM), and the solution was equilibrated for 30 min before titration. The substrate solution of PDI2 was injected in aliquots. For each injection, the guest displacement process was relatively slow and took about 3-10 min to reach the equilibrium as monitored by the change of fluorescence (ex: 560 nm, em: 660 nm) over time. At this excitation wavelength, PDI2⊂XCage^8+ is fluorescent; XCage^8+, PDI2 and Caffeine are nonfluorescent. The association constants were calculated by fitting the titration data with a nonlinear least-squares fitting equation for displacement binding using Origin Lab 8.6 software.^S14
Displacement fluorescence titration experiments in MeCN: Perylene (250 μM) was premixed with XCage^8+ (5 μM) in MeCN, and the solution was equilibrated for 30 min before titration. The substrate solution of PDI2 was injected in aliquot amount. Between each injection, the change of fluorescence intensity was monitored over time until the fluorescence (ex: 550 nm, em: 660 nm) intensity reached a steady state. At this excitation wavelength, […] is fluorescent while XCage^8+ and PDI2 are nonfluorescent. The association constants were calculated by fitting the titration data with a nonlinear least-squares fitting equation for displacement binding using Origin Lab 8.6 software.^S14

A short description of series [4]: Binding kinetics of threading PDI2 into XCage.8CF3CO2, tracked by turn-on fluorescence. The conditions noted are these: water, second order kinetic model. Here is the method:
as §1
Equal volume of PDI2 (1 μL, 100 μM) and XCage^8+ (1 μL, 100 μM) were mixed in H2O (1 mL) and the change of fluorescence (ex: 540 nm, em: 554 nm) was monitored over time. The resulting threading kinetics profiles were fitted using a second order kinetics model by Origin Lab 8.6 software. In MeCN, the change of fluorescence over time upon the formation of PDI2⊂XCage^8+ is too small to produce a kinetics profile as a result of the similar quantum yield between PDI2⊂XCage^8+ and PDI2.

The subject of series [5] is MCF-7 cells. Put plainly: Live-cell confocal microscopy. The class given is cell-based, human. To be noted: MCF-7, 10 μM, 6 h. Here is the method:
(§2) MCF-7 cells (human breast adenocarcinoma cell line) obtained from American Type Culture Collection (ATCC, Rockville, Md., USA) was utilized for cell culture experiments. MCF-7 cells were cultured in Dulbecco's Modified Eagle's Medium (DMEM) supplemented with 10% fetal bovine serum (FBS), penicillin (100 IU/mL) and streptomycin (100 μg/mL) at 37° C. in the presence of air (95%) and carbon dioxide (5%).
(§3) MCF-7 cells (1×10^5 cells/ml, 300 μL) were plated in each well of an 8-well chamber slide (ThermoFischer Scientific) and adhered overnight. PDI2 or PDI2⊂XCage^8+ was added to each well and incubated for 6 h or 24 h. Cells were then washed with PBS, and stained with LysoTracker green (lysosome stain, 1:1000 dilution) or NucBlue™ Live ReadyProbes™ Reagent (nuclear stain, 1 drop) or Hoechst 33342 nucleic acid stain (1:2000 dilution from 10 mg/mL stock). Plated cells were imaged within a humidified chamber using a 63× oil-immersion objective on a SP5 Leica Confocal Microscope using HyD detectors and lasers or a Deltavision Core Elite with a DAPI excitation filter (381-399 nm), DAPI emission filter (em: 411-459 nm) and TRITC emission filter (em: 571-617 nm) at equivalent light levels and exposure time. Intensity of signal in cells was measured with FIJI/ImageJ software.

Series [6] has as its system MCF-7 cells. Put plainly: Live-cell widefield fluorescence imaging using energy transfer. Format: cell-based, human. To be noted: MCF-7, 20 μM, 6 h. As for the experimental part: as §2, §3
Series [7] is described as follows: Photophysical characterization. The class given is physicochemical. As for the experimental part: Commercially available solvents and chemicals were purchased from Sigma-Aldrich and Fisher Scientific and used without further purification unless otherwise stated. Water was deionized, and micro filtered using Milli-Q water filtration station. Compounds PDI1^S1 and ExBox.4Cl^S2 were prepared using previously reported procedures. Thin layer chromatography (TLC) was performed on silica gel 60 F254 (E. Merck). Flash column chromatography was performed by Combiflash Rf 200 purification system. Reverse phase column chromatography was performed on Combiflash NEXTGEN 300+ system with SNAP ULTRA C18 cartridges which were purchased from Biotage. UV/Vis Absorption spectra were recorded in a glass cuvette using a UV-3600 Shimadzu spectrophotometer. Steady-state emission spectra were acquired in a quartz cuvette with an optical path-length of 10 mm containing the solution of interest using HORIBA Fluoromax4 spectrofluorometer, which was equipped with an integrating sphere for absolute photoluminescence quantum yield determination and time-correlated single-photon counting (TCSPC) module for emission decays. Nuclear magnetic resonance (NMR) spectra were recorded on Bruker AVANCE III 500 MHz spectrometer equipped with DCH CryoProbe, with working frequencies of 500 MHz for ^1H and 125 MHz for ^13C nuclei. […] High-resolution mass spectra were measured on an Agilent 6210 Time of Flight (TOF) LC-MS, using an ESI source, coupled with Agilent 1100 HPLC stack, using direct infusion (0.6 mL/min). Single crystal data were obtained on a Bruker Kappa APEX2 CCD diffractometer using Cu-Kα radiation. Detailed experimental procedures are provided below in the appropriate sections.
The fluorescence quantum yield of PDI dyes were measured by using rhodamine 6G in EtOH (Φf=0.95) as standard.^S2 The concentrations of rhodamine 6G and PDI dyes were adjusted to the absorption value 0.08 at 450 nm. The fluorescence spectrum of each solution was obtained with excitation at 450 nm, and the integrated area was used in the fluorescence quantum yield calculation. The estimated error for this method^S13 is ±10%. The fluorescent life-time was measured by Horiba Fluoromax-4 fluorometer equipped with TCSPC. Samples were excited by a laser at 374 nm, and the fluorescence decay over time was monitored at 560 nm. The fluorescent decay profiles were analyzed by a DAS6 software and matched either by a single exponential decay or double exponential decay model through mathematic fittings.

Series [8] in a line: Solubility observations. Format: physicochemical.

Consider `Cn1c(=O)c2c(ncn2C)n(C)c1=O` [Caffeine, reference compound], for which, in series [1] (H2O, 25° C.), the TΔS is −1.5 kcal mo1^−1, the ΔH is given as −8.6 kcal mo1^−1 and the ΔG was −7.1^c kcal mo1^−1.

For the molecule `c1cc2ccc1C[n+]1ccc(cc1)-c1ccc(cc1)-c1cc[n+](cc1)Cc1ccc(cc1)C[n+]1ccc(cc1)-c1ccc(cc1)-c1cc[n+](cc1)C2` [ExBox.4Cl], in series [2], the binding affinity was 2e+06 M⁻¹ and the binding enthalpy is -7.4 kcal/mol.

On to `COCCOCCOCCOCCOCCOCCOCCOCCOCCOCCOCCOCCOCCOCCOCCOCCOCCOCCOCCOCCOCCOCCOCCOCCOCCOCCOCCOCCOCCOCCOCCOCCOCCOCCOCCOCCOCCOCCOCCOCCOCCOCCOCCOCCOCCN1C(=O)c2ccc3c4ccc5c6c(ccc(c7ccc(c2c37)C1=O)c64)C(=O)N(CCOCCOCCOCCOCCOCCOCCOCCOCCOCCOCCOCCOCCOCCOCCOCCOCCOCCOCCOCCOCCOCCOCCOCCOCCOCCOCCOCCOCCOCCOCCOCCOCCOCCOCCOCCOCCOCCOCCOCCOCCOCCOCCOCCOCCOC)C5=O` [PDI2], for which the ΔG in series [3] (H2O) is given as −14.8^d kcal mo1^−1. Further, the “Ka Fluorescence” value in series [3] (H2O, PDI2 by displacement in presence of 1000 molar equivalents of Caffeine) was found to be 7.7e+10 M⁻¹. Besides, the ΔG in series [3] (MeCN) is listed as −13.0^d kcal mo1^−1. Further, in series [1] (H2O, 25° C.), the TΔS is 0.7 kcal mo1^−1 and the ΔH was −14.1 kcal mo1^−1. In series [1] (MeCN, 25° C.), this molecule showed a TΔS of 2.8 kcal mo1^−1 and a ΔH of −10.2 kcal mo1^−1. The “binding enthalpy in water higher than in MeCN” value in series [1] (water versus MeCN) came out at 4 kcal/mol. Besides, the kon result in series [4] is “(4.8±1.1)×10^5 M^−1s^−1”. Further, the “fluorescence in brightfield-merged confocal images” value in series [5] is listed as “no fluorescence”. Moreover, in series [6], the “fluorescence signal, DAPI excitation filter (ex: 381-399 nm), TRITC emission filter (em: 571-617 nm)” value was “did not show any fluorescence signal”. Besides, in series [7] (H2O), the logε was found to be 4.48, the Φf is 0.04, the λabs was 497/534 and the λem is 542/586/633. Further, in series [7] (H2O), the λex is recorded as 461/502/529; the τ was 4.7 ns and 4.71 ns. In addition, in series [7] (MeCN), the fluorescence quantum yield stood at 66%; the logε was 4.91; the “red shift of absorption and emission maxima of PDI2 in the presence of XCage.8CF3CO2” value was 23-25 nm; the Φf was found to be 0.66. Also, in series [7] (MeCN), the λem is given as 529/568/617, the λex is 452/482/518 and the τ was 4.47 ns. The molecule also had a fluorescence quantum yield in series [7] (water) of 4%.

Consider `c1cc2cccc3c4cccc5cccc(c(c1)c23)c54` [Perylene, reference compound], for which the “Ka Fluorescence” value in series [3] (MeCN, PDI2 by displacement of 50 molar equivalents of Perylene) was 5e+06 M⁻¹. In addition, in series [1] (MeCN, 25° C.), the “Ka ITC” value stood at 3.6e+06 M⁻¹, the TΔS was 2.0 kcal mo1^−1, the ΔH is given as −06.9 kcal mo1^−1 and the ΔG is given as −08.9^c kcal mo1^−1.

On to `c1cc2ccc1C[n+]1ccc(cc1)-c1cc3cc(c1)-c1cc4cc(c1)-c1cc[n+](cc1)Cc1ccc(cc1)C[n+]1ccc(cc1)-c1cc(cc(c1)-c1cc(cc(c1)-c1cc[n+](cc1)Cc1ccc(cc1)C[n+]1ccc-3cc1)-c1cc[n+](cc1)C2)-c1cc[n+](cc1)Cc1ccc(cc1)C[n+]1ccc-4cc1` [XCage.8CF3CO2], for which the “binding constant for Perylene, times higher than that of ExBox^4+.4PF6” value in series [3] (MeCN) is “about 86”. For the same molecule, the “enhancement of binding affinity towards PDI2 compared with ExBox.4Cl (factor)” value in series [3] (water) is reported as 38,000. Besides, in series [1] (water, guest PDI2), the “TΔΔS, loss of binding entropy compared with ExBox.4Cl” value is -0.5 kcal/mol and the “ΔΔH, gain in binding enthalpy compared with ExBox.4Cl” value is -6.7 kcal/mol. For the same molecule, in series [8] (MeCN), the solubility entry is listed as “slightly soluble”. For the same molecule, the solubility result in series [8] (water and MeOH) is “highly soluble”. In series [7] (water), the “blue fluorescence emission range” value is listed as 350-550 nm and the fluorescence quantum yield worked out at 10%.
